{
  "source": "patent US20220370467A1",
  "about": "“USING OF A PPAR-DELTA AGONIST IN THE TREATMENT OF KIDNEY DISEASE” (Reneo Pharmaceuticals, Inc., priority 2019, published 2022)",
  "key": {"LXRα": {"target": "T1, LXRα (Homo sapiens, UniProt Q13133)", "T1 sequence (Q13133 1-447)": "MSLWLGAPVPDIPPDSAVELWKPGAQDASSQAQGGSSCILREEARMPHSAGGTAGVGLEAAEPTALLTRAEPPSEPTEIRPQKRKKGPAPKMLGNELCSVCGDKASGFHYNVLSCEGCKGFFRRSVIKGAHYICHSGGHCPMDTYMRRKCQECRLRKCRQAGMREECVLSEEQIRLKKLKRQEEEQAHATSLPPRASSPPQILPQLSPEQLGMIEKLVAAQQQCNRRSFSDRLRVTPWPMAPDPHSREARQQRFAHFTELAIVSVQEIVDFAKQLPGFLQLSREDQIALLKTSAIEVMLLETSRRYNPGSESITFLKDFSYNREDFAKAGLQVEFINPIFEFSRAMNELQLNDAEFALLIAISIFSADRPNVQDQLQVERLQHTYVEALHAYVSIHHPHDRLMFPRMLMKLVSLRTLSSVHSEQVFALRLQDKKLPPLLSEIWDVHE", "experiment": "activity on nuclear receptor LXRα"}, "hPPARα": {"target": "T2, hPPARα (Homo sapiens, UniProt Q07869)", "T2 construct": "expressed in transfected cells; host or cells: HEK293", "T2 sequence (Q07869 239-466 limits assumed)": "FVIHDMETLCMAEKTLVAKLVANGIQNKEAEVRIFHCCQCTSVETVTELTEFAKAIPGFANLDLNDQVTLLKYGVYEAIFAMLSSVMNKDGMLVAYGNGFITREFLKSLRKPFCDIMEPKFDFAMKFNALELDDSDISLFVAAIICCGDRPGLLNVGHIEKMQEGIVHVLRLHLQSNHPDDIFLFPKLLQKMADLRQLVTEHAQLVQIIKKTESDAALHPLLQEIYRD", "experiment": "in vitro assay on human PPAR subtypes (transactivation): hPPARα", "format": "cell-based", "text": "“Activation” here is defined as the abovementioned downstream response, which in the case of PPAR's is gene transcription. Gene transcription may be measured indirectly as downstream production of proteins reflective of the activation of the particular PPAR subtype under study. Alternatively, an artificial reporter construct may be employed to study the activation of the individual PPAR's expressed in cells. The ligand binding domain of the particular receptor to be studied may be fused to the DNA binding domain of a transcription factor, which produces convenient laboratory readouts, such as the yeast GAL4 transcription factor DNA binding domain. The fusion protein may be transfected into a laboratory cell line along with a Gal4 enhancer, which effects the expression of the luciferase protein. When such a system is transfected into a laboratory cell line, binding of a receptor agonist to the fusion protein will result in light emission.\nThe PPAR transient transactivation assay may be based on transient transfection into human HEK293 cells of two plasmids encoding a chimeric test protein and a reporter protein respectively. […] The amount of luciferase protein is measured by light emission after addition of the appropriate substrate. […]"}},
  "data": [
    {"smiles": "Cc1cc(OC/C=C(/c2ccc(F)cc2)c2ccc(C#CCN3CCOCC3)cc2)ccc1OCC(=O)O", "note": "[Compound 1, (E)-[4-[3-(4-Fluorophenyl)-3-[4-[3-(morpholin-4-yl)propynyl]phenyl]allyloxy]-2-methyl-phenoxy]acetic acid]", "values": [
      {"measurement": "activity on LXRα", "setting": "LXRα", "value": "did not show any"},
      {"measurement": "agonist type on PPARα", "setting": "hPPARα", "value": "partial agonist"},
      {"measurement": "activity on PPARα in transactivation assays", "setting": "hPPARα; in some cases", "value": "negligible activity"}
    ]}
  ]
}
